For eight molecules, IC50 results are on record in patent US20230203029A1 (priority 2020, published 2023).

pIC50: −log10 of the molar value.

The target in experiment [1] is T1, Ba/F3 Pro B-cell line expressing TEL-human Tyro3 fusion domain (Homo sapiens, UniProt Q06418).
T1 sequence (Q06418 518-790 limits assumed): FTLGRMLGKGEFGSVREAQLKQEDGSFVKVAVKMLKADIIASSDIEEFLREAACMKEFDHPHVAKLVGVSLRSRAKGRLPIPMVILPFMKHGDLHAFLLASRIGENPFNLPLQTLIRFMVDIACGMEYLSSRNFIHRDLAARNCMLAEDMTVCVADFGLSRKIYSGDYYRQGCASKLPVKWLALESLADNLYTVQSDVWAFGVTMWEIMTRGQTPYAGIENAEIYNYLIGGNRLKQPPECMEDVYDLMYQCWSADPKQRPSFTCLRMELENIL
The class given is cell-based. As to conditions: cell survival, 48 h, CellTiter-Glo. Here is the method:
(§1) Assay 5—Ba/F3 Cell Survival Assays.
(§2) The inhibitory potencies of compounds were assessed in a Ba/F3 cell survival assay, using the Ba/F3 Pro B-cell line, recombinantly expressing a BCR-human AXL kinase domain fusion protein (pACD320/AXL, Advanced Cellular Dynamics Inc), TEL-human MERTK fusion domain (pACD1000/MERTK, Advanced Cellular Dynamics Inc), TEL-human Tyro3 fusion domain (pACD1000/TYRO3, Advanced Cellular Dynamics Inc), or control TEL-none (ACD320, Advanced Cellular Dynamics Inc) BRC-none constructs (ACD1000, Advanced Cellular Dynamics Inc). 10 ng/mL recombinant murine IL3 (R&D, 403-ML-010) was included in the media when propagating negative control TEL-none or BCR-none lines only. Cells were maintained in RMPI 1640 (Corning 15-040-CV) culture media containing 10% heat inactivated semi-synthetic FBS (RMBIO FGR-BBT), 2 mM L-Glutamine (Sigma, G7513), 100 IU/mL Penicillin-10 mg/mL Streptomycin (Sigma, P4333), and 500 ng/mL Puromycin (Sigma, P8833). Experiments were performed in 50 μl growth media, including the test compounds of interest, and dispensing 5000 cells/well in logarithmic-phase growth into a 384 well white Optiplate (Perkin Elmer 6007299). […] The final assay DMSO concentration was 0.25%. Compound incubations were conducted for 48 h at 37° C./5% CO2, after which cell plate was equilibrated at room temperature for 20 minutes prior to assessing viability. 15 μl of Promega CellTiter-Glo reagent (G7572) was added to each well for 2 min on an orbital shaker to induce cell lysis.
The plate was then equilibrated for 5 min at room temperature and luminescence read on a BMG Pherastar FSX using the LUM plus optic module. Data were normalised to measurements in the absence of competing compound (0% inhibition). Competition curves were then fit to a 4 parameter logistic equation including a variable slope factor to determine the IC50 (compound concentration causing a half-maximal inhibition of cell survival).
Background: ATP-based viability assays read luminescence as a measure of living cells.

In experiment [2] the target is T2, Ba/F3 Pro B-cell line expressing TEL-human MERTK fusion domain (Homo sapiens, UniProt Q12866).
T2 sequence (Q12866 587-858 limits assumed): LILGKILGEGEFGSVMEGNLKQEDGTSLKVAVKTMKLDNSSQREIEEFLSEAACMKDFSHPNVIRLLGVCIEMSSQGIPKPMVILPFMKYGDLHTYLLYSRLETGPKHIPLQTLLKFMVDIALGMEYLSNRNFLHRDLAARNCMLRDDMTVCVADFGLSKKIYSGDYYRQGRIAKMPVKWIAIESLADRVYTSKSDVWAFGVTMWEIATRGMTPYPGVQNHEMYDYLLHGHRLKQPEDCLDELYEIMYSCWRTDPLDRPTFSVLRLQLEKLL
The format is cell-based. The note with it: cell survival, 48 h, CellTiter-Glo; read-out: TEL-MERTK Ba/F3 IC50. Here is the method: as §1
as §2, with “only.” for “only. Cells were maintained in RMPI 1640 (Corning 15-040-CV) culture media containing 10% heat inactivated semi-synthetic FBS (RMBIO FGR-BBT), 2 mM L-Glutamine (Sigma, G7513), 100 IU/mL Penicillin-10 mg/mL Streptomycin (Sigma, P4333), and 500 ng/mL Puromycin (Sigma, P8833). Experiments were performed in 50 μl growth media, including the test compounds of interest, and dispensing 5000 cells/well in logarithmic-phase growth into a 384 well white Optiplate (Perkin Elmer 6007299).”
(§3) The plate was then equilibrated for 5 min at room temperature and luminescence read on a BMG Pherastar FSX using the LUM plus optic module. […] Competition curves were then fit to a 4 parameter logistic equation including a variable slope factor to determine the IC50 (compound concentration causing a half-maximal inhibition of cell survival).

Experiment [3] deals with T3, human AXL cytoplasmic domain (Homo sapiens, UniProt P30530).
T3 construct: human AXL cytoplasmic domain (Thermo Fisher A31515); purchased Thermo Fisher A31515
T3 sequence (P30530 473-894 limits assumed): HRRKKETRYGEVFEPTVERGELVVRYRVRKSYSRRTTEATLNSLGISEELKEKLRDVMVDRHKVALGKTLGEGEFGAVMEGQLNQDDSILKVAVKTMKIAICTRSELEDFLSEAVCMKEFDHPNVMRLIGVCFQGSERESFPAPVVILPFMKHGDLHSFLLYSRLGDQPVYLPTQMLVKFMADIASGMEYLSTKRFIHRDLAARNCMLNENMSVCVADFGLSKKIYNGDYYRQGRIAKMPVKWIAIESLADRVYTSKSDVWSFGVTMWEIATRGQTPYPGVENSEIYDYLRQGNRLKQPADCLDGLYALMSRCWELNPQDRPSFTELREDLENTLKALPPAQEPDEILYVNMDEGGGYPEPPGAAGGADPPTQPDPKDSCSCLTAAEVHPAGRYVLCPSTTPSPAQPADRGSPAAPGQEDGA
Kind of experiment: Assay 1b AXL HTRF KinEASE-TK assay. The format is biochemical. Here is the method: Assay 1b—AXL HTRF KinEASE-TK Assay
Compound inhibition of human AXL cytoplasmic domain (Thermo Fisher A31515) enzymatic activity was tested via the HTRF KinEASE-tyrosine kinase (TK) kit (Cisbio 62TK0PEC). Experiments were performed in 20 μl enzymatic buffer (Cisbio 62EZBFDD) supplemented with 5 mM MgCl2, 1 mM MnCl2, 1 mM DTT, 50 nM SEB (Cisbio, 61SEBALB), with 5 nM of AXL and the test compounds of interest. […] The enzymatic reaction was carried out for 30 min at room temperature. 10 μL TK Antibody-Cryptate/Streptavidin-XL665 (Cisbio 610SAXLG) was then added for 60 min, including EDTA containing detection buffer (Cisbio 62SDBRDF) to stop the reaction. The plate was read on a BMG Pherastar FSX using a HTRF 337/620/665 optical module to excite the terbium donor at 337 nm, and record donor emission at 620 nm and acceptor fluorophore emission at 665 nm. From this the FRET ratio (acceptor 665 nm/donor 620 nm) for each data point was calculated. […] Competition curves were then fit to a 4 parameter logistic equation including a variable slope factor to determine the IC50 (compound concentration that inhibits 50% of AXL activity).

In experiment [4] the target is T4, human MERTK cytoplasmic domain (Homo sapiens, UniProt Q12866).
T4 construct: human MERTK cytoplasmic domain (Carna Biosciences 08-108); purchased Carna Biosciences 08-108
T4 sequence (Q12866 527-999): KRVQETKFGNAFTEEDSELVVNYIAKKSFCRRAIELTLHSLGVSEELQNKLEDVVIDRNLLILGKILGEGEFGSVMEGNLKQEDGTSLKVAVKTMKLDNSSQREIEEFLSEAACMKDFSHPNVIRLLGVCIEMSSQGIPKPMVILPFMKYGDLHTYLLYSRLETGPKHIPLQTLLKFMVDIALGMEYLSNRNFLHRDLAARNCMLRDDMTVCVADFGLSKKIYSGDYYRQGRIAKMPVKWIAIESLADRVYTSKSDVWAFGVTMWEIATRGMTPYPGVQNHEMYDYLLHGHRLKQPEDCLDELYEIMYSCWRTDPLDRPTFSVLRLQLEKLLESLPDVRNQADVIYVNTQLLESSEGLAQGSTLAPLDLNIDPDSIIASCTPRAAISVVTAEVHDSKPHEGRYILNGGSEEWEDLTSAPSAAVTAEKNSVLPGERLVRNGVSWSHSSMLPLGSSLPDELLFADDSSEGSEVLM
The experiment in a line: biochemical. As to conditions: 30 uM ATP; read-out: Assay 1a Mer IC50 30 uM ATP. Here is the method:
Assay 1a—MERTK HTRF KinEASE-TK Assay
The enzymatic reaction was carried out for 30 min at room temperature. 10 μL TK Antibody-Cryptate/Streptavidin-XL665 (Cisbio 610SAXLG) was then added for 60 min, including EDTA containing detection buffer (Cisbio 62SDBRDF) to stop the reaction.

Experiment [5] addresses T5, Ba/F3 Pro B-cell line expressing BCR-human AXL kinase domain fusion protein (Homo sapiens, UniProt P30530).
T5 construct: P11274 (Breakpoint cluster region protein)
T5 sequence (P30530 536-807 limits assumed): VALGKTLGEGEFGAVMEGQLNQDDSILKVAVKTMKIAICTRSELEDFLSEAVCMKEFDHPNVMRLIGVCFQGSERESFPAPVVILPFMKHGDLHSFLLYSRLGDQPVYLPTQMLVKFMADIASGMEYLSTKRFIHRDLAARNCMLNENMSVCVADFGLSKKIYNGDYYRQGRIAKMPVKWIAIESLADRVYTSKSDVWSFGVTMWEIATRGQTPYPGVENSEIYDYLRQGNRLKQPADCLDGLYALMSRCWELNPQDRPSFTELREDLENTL
Kind of experiment: Assay 5 Ba/F3 cell survival assay, BCR-Axl. The format is cell-based. As to conditions: read-out: BCR-Axl Ba/F3 IC50, 48 h, CellTiter-Glo. Here is the method: as §1
as §2, with “only.” for “only. Cells were maintained in RMPI 1640 (Corning 15-040-CV) culture media containing 10% heat inactivated semi-synthetic FBS (RMBIO FGR-BBT), 2 mM L-Glutamine (Sigma, G7513), 100 IU/mL Penicillin-10 mg/mL Streptomycin (Sigma, P4333), and 500 ng/mL Puromycin (Sigma, P8833). Experiments were performed in 50 μl growth media, including the test compounds of interest, and dispensing 5000 cells/well in logarithmic-phase growth into a 384 well white Optiplate (Perkin Elmer 6007299).”
as §3

As to `CN1CCN(c2cc3c(Oc4ccc(NC(=O)c5cccn(-c6ccc(F)cc6)c5=O)nc4)ccnc3cn2)CC1` [Example 10.1, 1-(4-fluorophenyl)-N-[5-[[6-(4-methylpiperazin-1-yl)-1,7-naphthyridin-4-yl]oxy]-2-pyridyl]-2-oxo-pyridine-3-carboxamide], the pIC50 in experiment [1] is 6.92; in experiment [2] it was 7.80; in experiment [3], 7.85; in experiment [4] it was 8.22.
Consider `O=C(Nc1ccc(Oc2ccnc3cnc(N4CCNCC4)cc23)cc1)c1c[nH]cc(-c2ccc(F)cc2)c1=O` [Example 12.7, 5-(4-fluorophenyl)-4-oxo-N-[4-[(6-piperazin-1-yl-1,7-naphthyridin-4-yl)oxy]phenyl]-1H-pyridine-3-carboxamide], for which the values for the pIC50 in experiment [3] and in experiment [4] were 7.44 and 7.80, respectively.
Take `O=C(Nc1ccc(Oc2ccnc3cnc(C4CCN(C5COC5)CC4)cc23)cn1)c1cccn(-c2ccc(F)cc2)c1=O` [Example 16.3, 1-(4-fluorophenyl)-N-[5-[[6-[1-(oxetan-3-yl)-4-piperidyl]-1,7-naphthyridin-4-yl]oxy]-2-pyridyl]-2-oxo-pyridine-3-carboxamide]: the pIC50 was 6.57 in experiment [1], 7.85 in experiment [2], 8.52 in experiment [3] and 9.00 in experiment [4].
`CN1CCC(C(=O)Nc2cc3c(Oc4ccc(NC(=O)c5cccn(-c6ccc(F)cc6)c5=O)nc4)ccnc3cn2)C1` (centres unmarked) [Example 18, 1-(4-Fluorophenyl)-N-[5-[[6-[(1-methylpyrrolidine-3-carbonyl)amino]-1,7-naphthyridin-4-yl]oxy]-2-pyridyl]-2-oxo-pyridine-3-carboxamide]: the pIC50 in experiment [1] is 6.78; in experiment [2], 8.52; in experiment [3], 7.47; in experiment [4], 8.70.
In the same order, the values of `CN1CCC(C(=O)Nc2cc3c(Oc4ccc(NC(=O)c5cccn(-c6ccc(F)cc6)c5=O)nc4)ccnc3cn2)CC1` [Example 18.1, 1-(4-fluorophenyl)-N-[5-[[6-[(1-methylpiperidine-4-carbonyl)amino]-1,7-naphthyridin-4-yl]oxy]-2-pyridyl]-2-oxo-pyridine-3-carboxamide] are 6.60, 7.89, 8.00 and 9.00.
For `CC(C)n1cc(C(=O)Nc2ccc(Oc3ccnc4cnc(C5CCN(C)CC5)cc34)cn2)c(=O)c(-c2ccc(F)cc2)c1` [Example 23, 5-(4-fluorophenyl)-1-isopropyl-N-[5-[[6-(1-methyl-4-piperidyl)-1,7-naphthyridin-4-yl]oxy]-2-pyridyl]-4-oxo-pyridine-3-carboxamide], the pIC50 in experiment [1] is 6.37; in experiment [2] it was 8.70; in experiment [3], 7.92; in experiment [4] it was 8.52.
Regarding `CC(C)n1cc(C(=O)Nc2ccc(Oc3ccnc4cnc(C5CCN(C)CC5)cc34)cn2)c(=O)n(-c2ccc(F)cc2)c1=O` [Example 23.1, 3-(4-fluorophenyl)-1-isopropyl-N-[5-[[6-(1-methyl-4-piperidyl)-1,7-naphthyridin-4-yl]oxy]-2-pyridyl]-2,4-dioxo-pyrimidine-5-carboxamide], the pIC50 in experiment [1] is 6.25; in experiment [2], 7.82; in experiment [4], 7.89.
`CC(C)n1cc(C(=O)Nc2ccc(Oc3ccnc4cnc(C(=O)N[C@H]5CCN(C)C5)cc34)cn2)c(=O)n(-c2ccc(F)cc2)c1=O` [Example 27.4, 4-[[6-[[3-(4-fluorophenyl)-1-isopropyl-2,4-dioxo-pyrimidine-5-carbonyl]amino]-3-pyridyl]oxy]-N-[(3S)-1-methylpyrrolidin-3-yl]-1,7-naphthyridine-6-carboxamide]: the pIC50 was 6.42 in experiment [1], 7.36 in experiment [2], 7.85 in experiment [5] and 7.85 in experiment [4].
